The test has as its target T1, human full-length recombinant PKC βII (Homo sapiens, UniProt P05771).
T1 construct: Active human full-length recombinant PKC βII; purchased Invitrogen GmbH, Darmstadt, Germany
Kind of test: Determination of PKC βII inhibition (Caliper mobility-shift kinase assay, Fluorescein-RFARKGSLRQKNV peptide substrate). In kind it is biochemical. To be noted: example compounds at a final concentration of 1.14 μM (±0.15 μM). How it is done: Determination of PKC βII Inhibition
PKC βII Inhibition was Determined According to the Following Protocol:
Active human full-length recombinant PKC βII and the peptide substrate, Fluorescein-RFARKGSLRQKNV, were purchased from Invitrogen GmbH, Darmstadt, Germany. Adenosine-5′-triphosphate (ATP), bovine serum albumine (BSA), dimethylsulphoxide (DMSO), 4-(2-hydroxyethyl)piperazine-1-ethanesulfonic acid (Hepes), Triton X-100, 1,2-Dioleoyl-sn-glycerol (DAG), L-G-Phosphatidyl-L-serine (PS), calcium chloride (CaCl2), and Pluronic F-68 were purchased from Sigma-Aldrich, Munich, Germany. Magnesium chloride, 1 M sodium hydroxide solution, 1M hydrochloric acid solution and EDTA were obtained from Merck Biosciences, Darmstadt, Germany.
Test compounds were diluted to three times the test concentration in buffer 1 (30 mM Hepes-NaOH, pH 7.4, 0.01% Pluronic F-68 and 3% (v/v) DMSO). The PKC enzyme was diluted to a concentration of 30 ng/ml in buffer 2 (30 mM Hepes-NaOH, pH 7.4, 15 mM MgCl2, 150 μM CaCl2, 150 μg/ml PS, 60 μg/ml DAG, and 0.045% (w/v) Triton X-100). The peptide substrate and ATP were diluted to concentrations of 3 μM and 120 μM, respectively, in buffer 2. Two μl of the compound solution were mixed with 2 μl of the diluted enzyme in a 384-well small volume microtiter plate (Greiner, Bio-One, Frickenhausen, Germany), and the kinase reaction was initiated by addition of 2 μl of the solution containing peptide substrate and ATP. After 60 min incubation at 32° C., the reaction was stopped by addition of 20 μl of a solution containing 130 mM Hepes-NaOH, pH 7.4. 0.0195% (v/v) Brij-35, 6.5 mM EDTA. 0.13% chip coating reagent 3 (Caliper Lifescience Inc, Hopkinton, Mass.) and 6.5% (v/v) DMSO. Phosphorylation of the substrate peptide was then detected on a Caliper 3000 instrument essentially as described by Pommereau et al (J. Biomol. Screening 2004, 9(5), 409-416). Separation conditions were as follows: Pressure −0.8 psi, upstream voltage −3000 V, downstream voltage −800 V. Positive controls (buffer 1 instead of compound) and negative controls (buffer 1 instead of compound and buffer 2 instead of kinase solution) were run in parallel on each plate. Fractional turnover (R) was determined as the height of the peak of the phosphorylated peptide product divided by the sum of the unphosphorylated substrate and phosphorylated product peak heights. Percent-inhibition values for the test compounds were determined using the formula % Inhibition=100*(1−(Rcompound−Rnegative control)/(Rpositive control−Rnegative control).
In the following table % inhibition values observed with example compounds at a final concentration of 1.14 μM (±0.15 μM) are listed: […]

T1 sequence (P05771 1-673 isoform P05771-2): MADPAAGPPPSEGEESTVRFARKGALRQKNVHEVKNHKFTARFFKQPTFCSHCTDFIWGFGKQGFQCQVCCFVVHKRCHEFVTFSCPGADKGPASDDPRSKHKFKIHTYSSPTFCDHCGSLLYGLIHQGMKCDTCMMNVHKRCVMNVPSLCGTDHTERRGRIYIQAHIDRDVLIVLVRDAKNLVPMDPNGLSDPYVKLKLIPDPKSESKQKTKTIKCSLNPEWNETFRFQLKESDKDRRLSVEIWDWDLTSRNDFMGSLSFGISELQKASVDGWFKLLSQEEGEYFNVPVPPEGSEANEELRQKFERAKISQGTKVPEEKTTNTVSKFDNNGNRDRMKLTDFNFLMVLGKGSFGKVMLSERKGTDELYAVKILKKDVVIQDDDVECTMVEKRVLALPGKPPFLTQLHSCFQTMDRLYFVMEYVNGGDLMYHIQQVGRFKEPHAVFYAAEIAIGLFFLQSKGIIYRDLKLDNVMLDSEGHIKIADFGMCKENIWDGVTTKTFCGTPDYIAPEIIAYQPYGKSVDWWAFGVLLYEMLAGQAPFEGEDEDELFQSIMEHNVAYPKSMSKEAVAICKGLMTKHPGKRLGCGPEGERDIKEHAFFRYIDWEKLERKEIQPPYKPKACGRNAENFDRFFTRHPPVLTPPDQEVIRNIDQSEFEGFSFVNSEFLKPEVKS

The term inhibition denotes the share of the control response that was lost under treatment. For the compound `Cc1n[nH]c2nc(-c3ccc(O)cc3)cc(C(=O)N3CC(C(C)(C)N)C3)c12` [Example 33, [3-(1-Amino-1-methyl-ethyl)-azetidin-1-yl]-[6-(4-hydroxy-phenyl)-3-methyl-1H-pyrazolo[3,4-b]pyridin-4-yl]-methanone], the inhibition at 1.14 µM worked out at 91%.

Consider `Cc1n[nH]c2nc(-c3ccc(O)cc3)cc(C(=O)N3CCC(CN)(c4ccccc4)CC3)c12` [Example 34, (4-Aminomethyl-4-phenyl-piperidin-1-yl)-[6-(4-hydroxy-phenyl)-3-methyl-1H-pyrazolo[3,4-b]pyridin-4-yl]-methanone], for which the inhibition at 1.14 µM came out at 69%.

As to `Cc1n[nH]c2nc(-c3ccc(O)cc3)cc(C(=O)NCCN3CCCC3)c12` [Example 35, 6-(4-Hydroxy-phenyl)-3-methyl-1H-pyrazolo[3,4-b]pyridine-4-carboxylic acid (2-pyrrolidin-1-yl-ethyl)-amide], the inhibition at 1.14 µM was found to be 52%.

For `Cc1n[nH]c2nc(-c3ccc(O)cc3)cc(C(=O)N3CCN(C(C)C)CC3)c12` [Example 36, [6-(4-Hydroxy-phenyl)-3-methyl-1H-pyrazolo[3,4-b]pyridin-4-yl]-(4-isopropyl-piperazin-1-yl)-methanone], the inhibition at 1.14 µM came out at 40%.

As for `Cc1n[nH]c2nc(-c3ccc(O)cc3)cc(C(=O)N3CCN(C)CC3)c12` [Example 37, [6-(4-Hydroxy-phenyl)-3-methyl-1H-pyrazolo[3,4-b]pyridin-4-yl]-(4-methyl-piperazin-1-yl)-methanone], the inhibition at 1.14 µM is 53%.

Regarding `Cc1n[nH]c2nc(-c3ccc(O)cc3)cc(C(=O)NCCN(C)C)c12` [Example 38, 6-(4-Hydroxy-phenyl)-3-methyl-1H-pyrazolo[3,4-b]pyridine-4-carboxylic acid (2-dimethylamino-ethyl)-amide], the inhibition at 1.14 µM was 80%.

In the case of `Cc1n[nH]c2nc(-c3ccc(O)cc3)cc(C(=O)N3CCN(C4CCC4)CC3)c12` [Example 39, (4-Cyclobutyl-piperazin-1-yl)-[6-(4-hydroxy-phenyl)-3-methyl-1H-pyrazolo[3,4-b]pyridin-4-yl]-methanone], the inhibition at 1.14 µM came to 45%.

Turning to `Cc1n[nH]c2nc(-c3ccc(O)cc3)cc(C(=O)N(C)CCNC(C)(C)C)c12` [Example 40, 6-(4-Hydroxy-phenyl)-3-methyl-1H-pyrazolo[3,4-b]pyridine-4-carboxylic acid (2-tert-butylamino-ethyl)-methyl-amide], the inhibition at 1.14 µM came to 38%.

In the case of `Cc1n[nH]c2nc(-c3ccc(O)cc3)cc(C(=O)NC3(C)CCNCC3)c12` [Example 41, 6-(4-Hydroxy-phenyl)-3-methyl-1H-pyrazolo[3,4-b]pyridine-4-carboxylic acid (4-methyl-piperidin-4-yl)-amide], the inhibition at 1.14 µM stood at 95%.

As for `Cc1n[nH]c2nc(-c3ccc(O)cc3)cc(C(=O)N3CCNCC34Cc3ccccc3C4)c12` [Example 42, (1,3-Dihydro-spiro[indene-2,2′-piperazin]-1′-yl)-[6-(4-hydroxy-phenyl)-3-methyl-1H-pyrazolo[3,4-b]pyridin-4-yl]-methanone], the inhibition at 1.14 µM was found to be 72%.

On to `Cc1n[nH]c2nc(-c3ccc(O)cc3)cc(C(=O)NC3CNCC3C)c12` (stereo not drawn) [Example 43, 6-(4-Hydroxy-phenyl)-3-methyl-1H-pyrazolo[3,4-b]pyridine-4-carboxylic acid (4-methyl-pyrrolidin-3-yl)-amide], for which the inhibition at 1.14 µM came to 81%.

Take `CCOC1CNCC1NC(=O)c1cc(-c2ccc(O)cc2)nc2[nH]nc(C)c12` (stereo not drawn) [Example 44, 6-(4-Hydroxy-phenyl)-3-methyl-1H-pyrazolo[3,4-b]pyridine-4-carboxylic acid (4-ethoxy-pyrrolidin-3-yl)-amide]: the inhibition at 1.14 µM came out at 83%.

Turning to `Cc1n[nH]c2nc(-c3ccc(O)cc3)cc(C(=O)NC3CNCC3c3ccccc3)c12` (stereo not drawn) [Example 45, 6-(4-Hydroxy-phenyl)-3-methyl-1H-pyrazolo[3,4-b]pyridine-4-carboxylic acid (4-phenyl-pyrrolidin-3-yl)-amide], the inhibition at 1.14 µM stood at 84%.

For `CCCC1(N)CCN(C(=O)c2cc(-c3ccc(O)cc3)nc3[nH]nc(C)c23)CC1` [Example 46, (4-Amino-4-propyl-piperidin-1-yl)-[6-(4-hydroxy-phenyl)-3-methyl-1H-pyrazolo[3,4-b]pyridin-4-yl]-methanone], the inhibition at 1.14 µM is 76%.

In the case of `CCCC1(N)CCN(C(=O)c2cc(-c3ccc(O)cc3)nc3[nH]nc(C)c23)C1` (stereo not drawn) [Example 47, (3-Amino-3-propyl-pyrrolidin-1-yl)-[6-(4-hydroxy-phenyl)-3-methyl-1H-pyrazolo[3,4-b]pyridin-4-yl]-methanone], the inhibition at 1.14 µM was 70%.

For the compound `CCCC1(N)CCCN(C(=O)c2cc(-c3ccc(O)cc3)nc3[nH]nc(C)c23)C1` (stereo not drawn) [Example 48, (3-Amino-3-propyl-piperidin-1-yl)-[6-(4-hydroxy-phenyl)-3-methyl-1H-pyrazolo[3,4-b]pyridin-4-yl]-methanone], the inhibition at 1.14 µM was found to be 70%.

Take `CCC1(NC(=O)c2cc(-c3ccc(O)cc3)nc3[nH]nc(C)c23)CCNCC1` [Example 49, 6-(4-Hydroxy-phenyl)-3-methyl-1H-pyrazolo[3,4-b]pyridine-4-carboxylic acid (4-ethyl-piperidin-4-yl)-amide]: the inhibition at 1.14 µM was determined as 97%.

Regarding `Cc1n[nH]c2nc(-c3ccc(O)cc3)cc(C(=O)NCCNC(C)C)c12` [Example 50, 6-(4-Hydroxy-phenyl)-3-methyl-1H-pyrazolo[3,4-b]pyridine-4-carboxylic acid (2-isopropylamino-ethyl)-amide], the inhibition at 1.14 µM stood at 81%.

With `COc1cccc(C(CN)NC(=O)c2cc(-c3ccc(O)cc3)nc3[nH]nc(C)c23)c1` (stereo not drawn) [Example 51, 6-(4-Hydroxy-phenyl)-3-methyl-1H-pyrazolo[3,4-b]pyridine-4-carboxylic acid [2-amino-1-(3-methoxy-phenyl)-ethyl]-amide], the inhibition at 1.14 µM stood at 85%.

On to `Cc1ccc(C(CN)NC(=O)c2cc(-c3ccc(O)cc3)nc3[nH]nc(C)c23)cc1` (stereo not drawn) [Example 52, 6-(4-Hydroxy-phenyl)-3-methyl-1H-pyrazolo[3,4-b]pyridine-4-carboxylic acid (2-amino-1-p-tolyl-ethyl)-amide], for which the inhibition at 1.14 µM is 86%.

For the compound `Cc1n[nH]c2nc(-c3ccc(O)cc3)cc(C(=O)N3CCNCC3)c12` [Example 53, [6-(4-Hydroxy-phenyl)-3-methyl-1H-pyrazolo[3,4-b]pyridin-4-yl]-piperazin-1-yl-methanone], the inhibition at 1.14 µM stood at 92%.

Regarding `Cc1n[nH]c2nc(-c3ccc(O)cc3)cc(C(=O)N3CCN(C(N)=O)CC3)c12` [Example 54, 4-[6-(4-Hydroxy-phenyl)-3-methyl-1H-pyrazolo[3,4-b]pyridine-4-carbonyl]-piperazine-1-carboxylic acid amide], the inhibition at 1.14 µM is 41%.

As for `O=C(c1cc(-c2ccc(O)cc2)nc2[nH]nc(C3CC3)c12)N1CCNCC1` [Example 55, [3-Cyclopropyl-6-(4-hydroxy-phenyl)-1H-pyrazolo[3,4-b]pyridin-4-yl]-piperazin-1-yl-methanone], the inhibition at 1.14 µM came out at 27%.

As to `Cc1n[nH]c2nc(-c3ccc(O)cc3F)cc(C(=O)N3CCNCC3(C)C)c12` [Example 56, (2,2-Dimethyl-piperazin-1-yl)-[6-(2-fluoro-4-hydroxy-phenyl)-3-methyl-1H-pyrazolo[3,4-b]pyridin-4-yl]-methanone], the inhibition at 1.14 µM was found to be 96%.

In the case of `Cc1n[nH]c2nc(-c3ccc(O)cc3F)cc(C(=O)N3CCNC[C@H]3c3ccccc3)c12` [Example 57, [6-(2-Fluoro-4-hydroxy-phenyl)-3-methyl-1H-pyrazolo[3,4-b]pyridin-4-yl]-((R)-2-phenyl-piperazin-1-yl)-methanone], the inhibition at 1.14 µM amounted to 99%.

For `CNC1CCN(C(=O)c2cc(-c3ccc(O)cc3F)nc3[nH]nc(C)c23)CC1` [Example 58, [6-(2-Fluoro-4-hydroxy-phenyl)-3-methyl-1H-pyrazolo[3,4-b]pyridin-4-yl]-(4-methylamino-piperidin-1-yl)-methanone], the inhibition at 1.14 µM was determined as 93%.

As for `Cc1n[nH]c2nc(-c3ccc(O)cc3F)cc(C(=O)N3CCC[C@@H](CN)C3)c12` [Example 59, ((S)-3-Aminomethyl-piperidin-1-yl)-[6-(2-fluoro-4-hydroxy-phenyl)-3-methyl-1H-pyrazolo[3,4-b]pyridin-4-yl]-methanone], the inhibition at 1.14 µM worked out at 80%.
